From PMC6028563, “Probing Substituents in the 1- and 3-Position: Tetrahydropyrazino-Annelated Water-Soluble Xanthine Derivatives as Multi-Target Drugs With Potent Adenosine Receptor Antagonistic Activity” (Frontiers in Chemistry, 2018)

How the values were obtained:
[1] = target: T1, rat A2A AR (Rattus norvegicus, UniProt P30543); test: Radioligand binding assay at rat A2A AR (rat brain striatum) vs. [^3H]MSX-2; settings: rat (r); rat brain striatum; n = 3; read-out: Ki ± SEM, A2A vs. [^3H]MSX-2
T1 construct: A2A ARs of rat brain striatal membrane preparations; from tissue; host or cells: rat brain striatum membranes
Outline: (§1)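 Affinity values derive from radioligand displacement on membrane preparations: native rat tissue (cortex for A1, striatum for A2A) or CHO cells recombinantly expressing human A1, A2A, A2B or A3 ARs.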

[2] = target: T2, human A2B AR (Homo sapiens, UniProt P29275); test: Radioligand binding assay at human A2B AR vs. [^3H]PSB-603; settings: for Ki: CHO cell membranes, n = 2 (n = 3 where marked a), read-out: Ki ± SEM, A2B vs. [^3H]PSB-603; for inhibition at 1 µM: at 1,000 nM
T2 construct: expressed in transfected cells; host or cells: CHO cells
T2 sequence (P29275 1-332): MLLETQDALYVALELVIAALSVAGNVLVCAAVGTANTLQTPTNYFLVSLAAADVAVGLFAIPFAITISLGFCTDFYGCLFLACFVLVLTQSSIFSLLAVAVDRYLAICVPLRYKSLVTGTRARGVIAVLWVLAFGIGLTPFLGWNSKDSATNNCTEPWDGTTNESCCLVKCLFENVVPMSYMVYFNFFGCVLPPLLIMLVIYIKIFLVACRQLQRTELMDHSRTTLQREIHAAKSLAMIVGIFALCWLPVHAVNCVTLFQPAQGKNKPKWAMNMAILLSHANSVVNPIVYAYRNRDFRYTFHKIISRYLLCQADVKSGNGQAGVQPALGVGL
Outline: as §1

[3] = target: T3, rat A1 AR (Rattus norvegicus, UniProt P25099); test: Radioligand binding assay at rat A1 AR (rat brain cortex) vs. [^3H]CCPA; settings: rat (r); rat brain cortex; n = 3
T3 construct: A1 ARs of rat brain cortical membrane; from tissue; host or cells: rat brain cortex membranes
T3 sequence (P25099 1-326): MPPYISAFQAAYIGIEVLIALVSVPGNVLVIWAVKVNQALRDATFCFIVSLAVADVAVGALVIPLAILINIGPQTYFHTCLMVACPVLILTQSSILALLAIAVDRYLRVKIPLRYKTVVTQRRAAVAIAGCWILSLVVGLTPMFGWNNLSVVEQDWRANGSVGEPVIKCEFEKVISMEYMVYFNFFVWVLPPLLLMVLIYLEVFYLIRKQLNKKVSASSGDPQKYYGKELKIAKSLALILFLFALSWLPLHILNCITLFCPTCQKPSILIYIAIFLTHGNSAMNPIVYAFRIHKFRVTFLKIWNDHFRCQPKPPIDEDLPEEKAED
Outline: as §1

[4] = target: T4, recombinant human MAO-B (Homo sapiens, UniProt P27338); test: Monoamine oxidase assay (Amplex Red), MAO-B; type: biochemical; settings: for IC50: n = 3, read-out: IC50 ± SEM, Human MAO-B; for inhibition at 10 µM: at 10,000 nM (10 μM), read-out: % inhibition at indicated concentration, Human MAO-B
T4 construct: purchased Sigma-Aldrich M7441; host or cells: baculovirus-infected insect cells
T4 sequence (P27338 1-520): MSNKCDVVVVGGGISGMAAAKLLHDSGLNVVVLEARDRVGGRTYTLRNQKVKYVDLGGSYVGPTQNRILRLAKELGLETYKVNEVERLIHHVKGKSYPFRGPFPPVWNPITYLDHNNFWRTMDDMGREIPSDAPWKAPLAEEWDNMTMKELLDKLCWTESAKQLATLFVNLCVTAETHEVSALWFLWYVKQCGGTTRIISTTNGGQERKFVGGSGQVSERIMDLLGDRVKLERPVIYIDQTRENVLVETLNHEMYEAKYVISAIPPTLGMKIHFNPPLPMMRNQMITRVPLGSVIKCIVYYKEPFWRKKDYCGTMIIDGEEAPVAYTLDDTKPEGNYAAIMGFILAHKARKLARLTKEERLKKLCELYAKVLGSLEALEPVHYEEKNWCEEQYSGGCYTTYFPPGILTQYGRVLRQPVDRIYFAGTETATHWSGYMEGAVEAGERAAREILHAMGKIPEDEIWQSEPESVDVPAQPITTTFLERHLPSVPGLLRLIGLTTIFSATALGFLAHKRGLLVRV
Outline: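 Inhibition was measured with an Amplex Red monoamine oxidase assay, using human MAO-A and MAO-B produced recombinantly in baculovirus-infected insect cells. For rat MAO-B, liver mitochondria-enriched fractions from male Sprague Dawley rats served as enzyme source.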

[5] = target: T5, human A3 AR (Homo sapiens, UniProt P0DMS8); test: Radioligand binding assay at human A3 AR vs. [^3H]PSB-11; settings: for Ki: CHO cell membranes, n = 2 (n = 3 where marked a), read-out: Ki ± SEM, A3 vs. [^3H]PSB-11; for inhibition at 10 µM: at 10,000 nM, read-out: % inhibition of radioligand binding at indicated concentration, A3 vs. [^3H]PSB-11
T5 construct: expressed in transfected cells; host or cells: CHO cells
T5 sequence (P0DMS8 1-318): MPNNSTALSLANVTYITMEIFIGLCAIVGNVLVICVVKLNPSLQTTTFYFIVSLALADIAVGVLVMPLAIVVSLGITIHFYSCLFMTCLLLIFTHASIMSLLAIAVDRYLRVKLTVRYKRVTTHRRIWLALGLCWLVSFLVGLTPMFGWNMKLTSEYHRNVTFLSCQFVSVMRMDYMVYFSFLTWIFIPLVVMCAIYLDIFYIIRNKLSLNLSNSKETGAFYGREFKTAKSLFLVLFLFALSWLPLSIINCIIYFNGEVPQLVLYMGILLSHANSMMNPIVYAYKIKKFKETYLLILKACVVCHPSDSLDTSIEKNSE
Outline: as §1

[6] = read-out: % inhibition of radioligand binding at indicated concentration, A2B vs. [^3H]PSB-603

T1 sequence (P30543 whole entry): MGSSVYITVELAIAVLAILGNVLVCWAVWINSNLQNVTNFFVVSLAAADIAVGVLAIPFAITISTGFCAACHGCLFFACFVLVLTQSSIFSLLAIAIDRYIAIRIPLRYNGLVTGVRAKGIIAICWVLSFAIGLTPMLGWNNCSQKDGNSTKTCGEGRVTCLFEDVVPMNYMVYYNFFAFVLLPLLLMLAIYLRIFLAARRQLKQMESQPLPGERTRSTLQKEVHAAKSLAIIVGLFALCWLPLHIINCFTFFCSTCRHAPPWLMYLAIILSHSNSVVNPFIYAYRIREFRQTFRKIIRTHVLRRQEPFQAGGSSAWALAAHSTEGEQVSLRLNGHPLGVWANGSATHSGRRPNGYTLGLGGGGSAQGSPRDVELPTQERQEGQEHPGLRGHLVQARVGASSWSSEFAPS

| SMILES | Ki [1] [nM] | Ki [2] [nM] | inhibition at 1 µM [2, 6] [%] | Ki [3] [nM] | IC50 [4] [nM] | Ki [5] [nM] | inhibition at 10 µM [5] [%] | inhibition at 0.1 µM ([2]; at 100 nM, read-out: % inhibition of radioligand binding at indicated concentration, A2B vs. [^3H]PSB-603) [%] | inhibition at 10 µM [4] [%] |
| --- | --- | --- | --- | --- | --- | --- | --- | --- | --- |
| CCn1c(=O)c2c(nc3n2CCN(Cc2cc(Cl)ccc2Cl)C3)n(C)c1=O [Compound 14j, 8-(2,5-dichlorobenzyl)-3-ethyl-1-dimethyl-6,7,8,9-tetrahydropyrazino[2,1-f]purine-2,4(1H,3H)-dione] | 617 ± 114 | > 1000 | 2 | 36.9 ± 6.1 | 3980 | > 10000 | 42 | – | – |
| CCn1c(=O)c2c(nc3n2CCN(Cc2cccc(C(F)(F)F)c2)C3)n(C)c1=O [Compound 14e, 3-ethyl-1-methyl-8-(3-(trifluoromethyl)benzyl)-6,7,8,9-tetrahydropyrazino[2,1-f]purine-2,4(1H,3H)-dione] | 708 ± 25 | > 100 | – | 49.1 ± 6.2 | < 10000 | > 10000 | 38 | 2 | > 50 |
| C#CCn1c(=O)c2c(nc3n2CCN(c2cccc(OC)c2)C3)n(CC)c1=O [Compound 20c, 1-ethyl-8-(3-methoxyphenyl)-3-propargyl-6,7,8,9-tetrahydropyrazino[2,1-f]purine-2,4(1H,3H)-dione] | 250 ± 80 | > 1000 | 38 | 328 ± 70 | ≤ 10000 | 7160 | – | – | > 50 |
| CCn1c(=O)c2c(nc3n2CCN(Cc2cc(Cl)cc(Cl)c2)C3)n(CC)c1=O [Compound 15m, 8-(3,5-dichlorobenzyl)-1,3-diethyl-6,7,8,9-tetrahydropyrazino[2,1-f]purine-2,4(1H,3H)-dione] | 2200 | > 1000 | 23 | 89.6 ± 21.4 | < 10000 | 4720 | – | – | 66 |
| CCn1c(=O)c2c(nc3n2CCN(Cc2cc(Br)ccc2F)C3)n(CC)c1=O [Compound 15l, 8-(5-bromo-2-fluorobenzyl)-1,3-diethyl-6,7,8,9-tetrahydropyrazino[2,1-f]purine-2,4(1H,3H)-dione] | 756 ± 46 | > 1000 | 24 | 33.5 ± 5.6 | 1310 | 13300 | – | – | – |
| CCn1c(=O)c2c(nc3n2CCN(Cc2cc(C(F)(F)F)ccc2Cl)C3)n(CC)c1=O [Compound 15n, 8-(2-chloro-5-(trifluoromethyl)benzyl)-1,3-diethyl-6,7,8,9-tetrahydropyrazino[2,1-f]purine-2,4(1H,3H)-dione] | 871 ± 50 | > 1000 | 23 | 19.6 ± 3 | ≤ 10000 | > 10000 | 38 | – | 54 |
| CCn1c(=O)c2c(nc3n2CCN(Cc2cccc(Br)c2)C3)n(C)c1=O [Compound 14b, 8-(3-bromobenzyl)-3-ethyl-1-methyl-6,7,8,9-tetrahydropyrazino[2,1-f]purine-2,4(1H,3H)-dione] | 1140 | > 1000 | 9 | 28.8 ± 1.5 | > 10000 | > 10000 | 39 | – | 34 |
